In series [1] the test system is HeLa: human epitheloid cervix carcinoma. The series can be described thus: In vitro cytotoxicity / antiproliferation, HeLa. It counts as cell-based. The protocol: (§1) The in vitro cytotoxicity of boronic derivatives of hydroxamates was tested against various cancer cell lines; the results are provided in Table 1.
Series [2] relates to A549: human non-small-cell lung carcinoma. Briefly: In vitro cytotoxicity / antiproliferation, A549. It counts as cell-based. The protocol:
as §1

The subject of series [3] is MDA-MB-231: human breast adenocarcinoma. The series can be described thus: In vitro cytotoxicity / antiproliferation, MDA-MB-231. The note with it: MDA-MB-231, read-out: Antiproliferation activity (IC50). It counts as cell-based.
For series [4], the system named is SK-OV-3: human ovarian cancer. Briefly: In vitro cytotoxicity / antiproliferation, SK-OV-3. Format: cell-based.
Series [5] concerns NCI-H460: human non-small-cell lung cancer. Briefly: In vitro cytotoxicity / antiproliferation, NCI-H460. It counts as cell-based. The note with it: NCI-H460, read-out: Antiproliferation activity (IC50).
Series [6] deals with SK-MEL-28: human melanoma. The series can be described thus: In vitro cytotoxicity / antiproliferation, SK-MEL-28. It counts as cell-based. The note with it: SK-MEL-28, read-out: Antiproliferation activity (IC50).
Series [7] deals with MCF-7 tumor xenograft. Briefly: In vivo efficacy in MCF-7 tumor xenograft model in mice. The note with it: 10 mg/kg/day subcutaneous; for effect on tumor growth (in words): compared with vehicle group; for average tumor volume: day 15; for Tumor volume: day 24, MCF-7 xenograft mice.
For series [8], the system named is MCF-7: human breast adenocarcinoma. The series can be described thus: In vitro cytotoxicity / antiproliferation, MCF-7. The following applies: MCF7. Format: cell-based. The protocol:
as §1

For series [9], the target named is Histone deacetylase (HDAC). The series can be described thus: Histone deacetylase activity assay kit (Fluorometric) ab156064. It counts as biochemical. The following applies: 20 min incubation; read-out: HDAC inhibitory activity EC50.
In series [10] the test system is MDA-MB-231 cells. The series can be described thus: In vitro pharmacokinetics: concentrations in culture media after incubation with MDA-MB-231 cells. Format: in vitro ADME, human. The note with it: 1-day incubation with MDA-MB-231 cells.
A short description of series [11]: Concentration in tumor tissue of MCF-7 xenograft mice. Format: in vivo. The following applies: after 24 days at 10 mg/kg/day subcutaneous.
Series [12] in a line: In vivo pharmacokinetics in mice after intraperitoneal injection (plasma). The following applies: single dose 10 mg/kg IP. The protocol: Pharmacokinetic studies of compound 3 in mice were conducted.

pEC50, pIC50: −log10 of the molar value. Where “and” joins values, the source holds several entries; their conditions need not be identical. Equal values may be shown once. Where only a bound is given, the exact number is not on record here.

Turning to `COc1ccc(C(=O)NOCc2ccc(B3OC(C)(C)C(C)(C)O3)cc2)cc1OC` [Compound 16], the pIC50 in series [1], in series [2] and in [3] was less than 5.00 throughout.

With `CC1=C(CC(=O)O)c2cc(F)ccc2/C1=C\c1ccc([S+](C)[O-])cc1` (stereo not drawn) [Sulindac, reference compound], the pIC50 in series [4] was 3.96; in series [5], 4.38; in series [1], 3.34; in [2], 1.69; in series [3], 2.86; in series [6] it was 2.85.

As for `CCN(CC)Cc1ccc2cc(COC(=O)Nc3ccc(C(=O)NOCc4ccc(B5OC(C)(C)C(C)(C)O5)cc4)cc3)ccc2c1` [Compound 4], the pIC50 in series [4] was 6.53; in [5], 6.81; in series [3] it was 6.49; in series [6] it was 6.42.

For the compound `Cn1c(CCCC(=O)O)nc2cc(N(CCCl)CCCl)ccc21` [Bendamustine, reference compound], the pIC50 in series [4] is 4.48; in series [5], 4.34; in [3], 4.43; in [6] it was 3.83.

With `CC1=C(CC(=O)NOCc2ccc(B3OC(C)(C)C(C)(C)O3)cc2)c2cc(F)ccc2/C1=C/c1ccc([S+](C)[O-])cc1` (stereo not drawn) [Compound 11], the pIC50 in series [4] was 4.71; in series [5], 6.00; in [1] it was 3.56; in series [2], 3.16; in series [3], 4.70; in [6] it was 4.11.

Turning to `CN(C)Cc1ccc(S(=O)(=O)n2ccc(/C=C/C(=O)NOCc3ccc(B4OC(C)(C)C(C)(C)O4)cc3)c2)cc1` [Compound 5], the pIC50 in series [1], in [2] and in series [3] was less than 5.00 throughout.

Regarding `COc1ccc(C(=O)NOCc2ccc(B3OC(C)(C)C(C)(C)O3)cc2)cc1` [Compound 10], the pIC50 in series [1], in series [2] and in [3] was less than 5.00 throughout.

For `Cn1c(CCCC(=O)NOCc2ccc(B3OC(C)(C)C(C)(C)O3)cc2)nc2cc(N(CCCl)CCCl)ccc21` [Compound 7], the pIC50 in series [4] is 5.74; in series [5], 5.91; in series [3] it was 5.48; in [6], 6.43.

As for `COc1cc(C(=O)NOCc2ccc(B3OC(C)(C)C(C)(C)O3)cc2)cc(OC)c1OC` [Compound 13], the pIC50 in series [1], in series [2] and in series [3] was less than 5.00 in each case.

Take `CC(C)Cc1ccc(C(C)C(=O)NOCc2ccc(B3OC(C)(C)C(C)(C)O3)cc2)cc1` (stereo not drawn) [Compound 14]: the pIC50 in [1], in series [2] and in [3] was less than 5.00 each time.

As to `O=C(/C=C/c1cccc(S(=O)(=O)Nc2ccccc2)c1)NO` [Belinostat, reference compound], the pIC50 is 7.06 in series [1], 7.12 in series [2], 7.21 in [3] and 7.02 in series [8]. Besides, in series [7] (24 days), the “TGI (inhibition of tumor growth)” value is 77.7%. In addition, the “effect on tumor growth (in words)” value in series [7] is “potent inhibitory activity against the growth of tumor”. The same compound registered an average tumor volume in [7] of 167 mm^3. Also, the Tumor volume in series [7] was 194 mm^3 and 193.68 ± 29.79 mm^3.

With `CC1(C)OB(c2ccc(CONC(=O)c3cc4ccccc4oc3=O)cc2)OC1(C)C` [Compound 15], the pIC50 in [1], in series [2] and in series [3] was less than 5.00 throughout.

Take `CC1(C)OB(c2ccc(CONC(=O)/C=C/c3cccc(S(=O)(=O)Nc4ccccc4)c3)cc2)OC1(C)C` [Compound 3]: the pEC50 (commonly the EC50 on a negative log10 scale, so that one unit is a factor of ten) in series [9] is 6.46. The pIC50 in series [5] is 6.37; in [1], 6.56; in [2], 6.34; in [3] it was 6.52; in series [6], 6.17; in series [8] it was 5.84. Further, the “conversion of compound 3 in culture media (in words)” value in series [10] was “completely converted to compound 95 and partially to belinostat”. In addition, the “T/C (tumor volume ratio)” value in [7] (24 days) stood at 14.6%. For the same compound, in series [7] (24 days), the “TGI (inhibition of tumor growth)” value is recorded as 85.3%. Moreover, the entries for the “effect on tumor growth (in words)” value in series [7] and in [7] (listed as compound 3) were “resulted in tumor remission” and “potent inhibitory activity against the growth of tumor”, respectively. Moreover, in [7], the average tumor volume was 153 mm^3. The compound also came in with a Tumor volume in series [7] of 127 mm^3. Moreover, the “concentration of belinostat and compound 95 added together in tumor tissue, relative to belinostat group” value in series [11] is listed as “five times greater”. Further, in [12], the “maximum concentration of compound 95 relative to maximum concentration achieved by belinostat” value is “about forty times”.

On to `CCN(CC)Cc1ccc2cc(COC(=O)Nc3ccc(C(=O)NO)cc3)ccc2c1` [Givinostat, reference compound], for which the pIC50 was 6.99 in series [5], 6.92 in series [3] and 7.04 in series [6].

On to `CC1(C)OB(c2ccc(CONC(=O)CCCCCCC(=O)Nc3ccccc3)cc2)OC1(C)C` [Compound 1], for which the pIC50 in [4] was 4.26; in [3] it was 3.37; in [6] it was 4.87.

For the origin of these results see patent publication US11046715B2, “Boronic derivatives of hydroxamates as anticancer agents” (Xavier University of Louisiana, priority 2016, dated 2021).
